# Source: patent US20070270339A1, “Use of GPCR54 Ligands for the Treatment of Infertility” (SERONO, INC., priority 2004, published 2007)
# No end group written: not given here.
# Experiments:
# [1] = tested on: gonadotropic axis (plasma LH and FSH); test: i.v. injection of Kiss-1: plasma LH and FSH levels, with or without Antide pretreatment; assay type: in vivo, rat
# Protocol: (§1) All experiments were conducted in female Sprague-Dawley rats (180-200 g) obtained from Charles River (MA), fed with standard laboratory chow and water ad libitum, kept on 12 h light-dark in temperature and humidity controlled room.
# (§2) Ovariectomy and implantation of estrogen-containing capsule. To remove daily variance of plasma estrogen levels due to variable estrous cycle, both ovaries were removed under anesthesia through incision at the animal's back. Right before closure of the incision, two estrogen-containing capsules (0.5 mg/coupsule, Innovative Research of America, FL) were inserted subcutaneously at the middle of animal's back to maintain consistent basal physiological levels of plasma estrogen. Rats were allowed to recover for 7 days.
# Jugular cannula insertion and tethering to automated blood sampler. The right jugular vein of anesthetized rats was exposed through a neck incision. A retaining suture was tied to the exposed vein at rostral end to manipulate the vein. The caudal end of the vein was clamped with a small forceps to prevent bleeding while a cannula, a polyethene tubing (OD 1.0 mm), was inserted in the middle of the vein through a 0.5 mm incision made with iris scissors. After the insertion of the cannula, a suture was tied around the vein at the caudal end to secure the cannula within the vein. The incision at the neck was closed with wound clips and the outer end of the cannula was attached to a tubing of an automated blood sampler (Bioanalytical Systems Inc., IN) filled with heparin-containing (20 IU/ml) sterile saline. The automated blood sampler consisting of a turning cage equipped with a food box and a water bottle, a balanced arm, a pumping system, a fraction collector and a controller was used to collect blood samples. A rat inserted of a jugular cannula was tethered to the balanced arm via a loosely-fitting plastic collar. The cage rotates to the counter direction of animal's movement to prevent twisting of the jugular cannula connected to a tubing of the sampler, as well as to allow the rat to eat, drink and move freely during the course of the blood collection. Rats were allowed to recover for 24 hours.
# All experiments were carried out around between 13 h and 14 h. […]
# (§3) Changes of plasma LH and FSH concentration (ng/ml) after injection were obtained as the area under the curve (AUC). It was first determined for each animal by calculating the sum of post-treatment hormonal levels at 15, 30 and 45 min each of which was subtracted by basal levels (an average of pre-treatment levels at −15 and 0 min), then averaged as a group. Statistical differences among treatment groups were determined by one-way ANOVA followed by LSD as a post-hoc test. […]
# [2] = biological target: GPCR54 (Homo sapiens, UniProt Q969F8); settings: peptides from placental tissue extract, Kotani et al. 2001; cited from earlier work
# [3] = tested on: gonadotropic axis (plasma LH and FSH); test: i.c.v. injection of Kiss-1: plasma LH and FSH levels; assay type: in vivo, rat
# Protocol: as §1
# Implantation of intracerebroventricular cannula for i.c.v. experiment. The head of anesthetized rats was placed in the stereotaxic instrument and oriented such that the bregma and lambda was horizontal. An incision was made along the sagittal midline in an anterior-to-posterior direction. A hole, 1.5 mm in diameter, was drilled through the skull 0.9 mm posterior and 0.0 mm lateral to bregma. A 25 mm×22 gauge stainless steel cannula was lowered about 7 mm until cerebrospinal fluid could be aspirated from the 3rd ventricle via a 1 cc syringe connected to the cannula by a 5 cm section of Silastic tubing. After sealing the outer opening of the cannula, it was anchored to the skull with three stainless steel screws and dental acrylic cement then the incision was closed. Rats were allowed to recover for 14 days.
# as §2
# Jugular cannula insertion and tethering to automated blood sampler. The right jugular vein of anesthetized rats was exposed through a neck incision. A retaining suture was tied to the exposed vein at rostral end to manipulate the vein. The caudal end of the vein was clamped with a small forceps to prevent bleeding while a cannula, a polyethene tubing (OD 1.0 mm), was inserted in the middle of the vein through a 0.5 mm incision made with iris scissors. After the insertion of the cannula, a suture was tied around the vein at the caudal end to secure the cannula within the vein. […]
# as §3
# [4] = tested on: LH and FSH release; test: in vivo comparison of GnRH and Kiss1 on release of LH and FSH over 45 minutes (FIG. 1); design: species or system rat; settings: single administration, compared with GnRH
# Protocol: All experiments were carried out around between 13 h and 14 h. […] Blood samples (100 ul) were removed before (−15 and 0 min) and after (15, 30, 45 min) injection with the automated blood sampler. Each blood sample was replaced with an equivalent volume of the heparin-containing (20 IU/ml) sterile saline. Plasma was extracted and stored at −20° C. until determination of LH and FSH by enzyme-linked immunoassay and radioimmunoassay, respectively.
# Changes of plasma LH and FSH concentration (ng/ml) after injection were obtained as the area under the curve (AUC). It was first determined for each animal by calculating the sum of post-treatment hormonal levels at 15, 30 and 45 min each of which was subtracted by basal levels (an average of pre-treatment levels at −15 and 0 min), then averaged as a group. Statistical differences among treatment groups were determined by one-way ANOVA followed by LSD as a post-hoc test. An initial data set is shown in FIGS. 1A-P. Further data are described in Examples 2 and 3 below.
# GPCR54, sequence (Q969F8 whole entry): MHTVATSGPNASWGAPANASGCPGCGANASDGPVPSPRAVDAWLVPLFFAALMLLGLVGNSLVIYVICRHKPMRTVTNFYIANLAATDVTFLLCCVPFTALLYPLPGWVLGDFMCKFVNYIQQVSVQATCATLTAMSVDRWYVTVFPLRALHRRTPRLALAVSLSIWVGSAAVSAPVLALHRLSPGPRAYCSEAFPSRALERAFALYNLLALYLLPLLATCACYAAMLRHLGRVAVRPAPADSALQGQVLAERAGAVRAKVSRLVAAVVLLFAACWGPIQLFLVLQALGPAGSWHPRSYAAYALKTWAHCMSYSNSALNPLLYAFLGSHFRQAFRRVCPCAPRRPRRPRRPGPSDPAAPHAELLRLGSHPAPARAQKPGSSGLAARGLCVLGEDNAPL
substance,measurement,setting,value
"GnRH: GnRH, a positive control, obtained from Sigma (QHWSYGLRPG; Gonadoliberin-1; UniProt P01148 24-33, looked up) [reference compound]",circulating gonadotropins levels,"[1]; GnRH positive control, estrogen-treated ovariectomized rats",induced elevations of circulating gonadotropins levels
Antide [reference compound],prevention of GnRH- and Kiss-1-induced elevations of circulating gonadotropins levels,[1]; Antide pretreatment 15 min before injection of 400 ug/kg of Kiss-1,successfully prevented
SEQ ID NO: 4: 54-amino acid kisspeptin from Kiss-1 with RF-amide at the C-terminus (Kotani et al.) (GTSLSPPPESSGSPQQPGLSAPHSRQIPAPQGAVLVQREKDLPNYNWNSFGLRF-NH2; listed as Homo sapiens),agonist activity at GPCR54,[2],agonists of GPCR54
Tyr-Asn-Trp-Asn-Ser-Phe-Gly-Leu-Arg-Phe-NH2 (YNWNSFGLRF-NH2; listed as Homo sapiens) [Kiss-1],i.c.v. dose to yield FSH response as fraction of i.v. dose,"[3]; FSH, i.c.v. versus i.v.",1/100
same,i.c.v. dose to yield LH response as fraction of i.v. dose,"[3]; LH, i.c.v. versus i.v.",1/25
same,LH release,"[3]; i.c.v. injection, estrogen-treated ovariectomized rats",dose-dependently stimulated LH release
same,FSH levels,"[3]; i.c.v. injection, higher dose not as effective as the lower dose",significant increase of FSH levels
same,LH and FSH production,[4],sufficient to drive LH and FSH production similar to GnRH
same,plasma FSH levels,"[1]; i.v. injection, estrogen-treated ovariectomized rats",dose-dependent increases
same,plasma LH levels,"[1]; i.v. injection, estrogen-treated ovariectomized rats, with the exception of LH response at the highest dose",dose-dependent increases
SEQ ID NO:5: 14-amino acid kisspeptin from Kiss-1 with RF-amide at the C-terminus (Kotani et al.) (DLPNYNWNSFGLRF-NH2; listed as Homo sapiens),agonist activity at GPCR54,[2],agonists of GPCR54
SEQ ID NO:6: 13-amino acid kisspeptin from Kiss-1 with RF-amide at the C-terminus (Kotani et al.) (LPNYNWNSFGLRF-NH2; listed as Homo sapiens),agonist activity at GPCR54,[2],agonists of GPCR54
